The target in one data set is T1, human macrodomain Targ1 (Homo sapiens, UniProt Q9Y530).
T1 construct: Targ1_HTRF; HTRF assay; pET22b(+); His6, TEV; 1-153; made in house
T1 sequence (Q9Y530 with tags, fused parts or gaps): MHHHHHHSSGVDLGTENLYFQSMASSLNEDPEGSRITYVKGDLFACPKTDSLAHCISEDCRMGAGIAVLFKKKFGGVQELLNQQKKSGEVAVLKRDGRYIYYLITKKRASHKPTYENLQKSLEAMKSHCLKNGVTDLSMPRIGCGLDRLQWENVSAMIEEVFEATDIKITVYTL
As to the kind of experiment: HTRF peptide displacement assay, human Targ1. The data set is classed as binding.

A further data set can be described thus: Kinetic solubility. The note with it: for Kinetic solubility (uM), mean: DMSO concentration 5%; for Mean solubility: phosphate-buffered saline pH 7.4, triplicate.
The subject of a further data set is Caco-2 cells. How it is done: Caco-2 cell plates were obtained commercially and were maintained for 21 days at 37°C with 5% CO2. Cells were washed with Hank’s balanced salt solution with 5 mM Hepes for 30 min before starting the experiment. Test compound solutions are prepared by diluting DMSO stock into Hank’s balanced salt solution buffer, resulting in a final DMSO concentration of 0.1%. Before the assay, cell monolayer integrity was verified by […] electrical resistance to ensure that wells have resistance above the acceptance cutoff (1 kilohm). Transport experiments were initiated by adding test compounds to the apical (75 μl) or basal (250 μl) side. Transport plates were incubated at 37°C in a humidified incubator with 5% CO2. Samples were taken from the donor and acceptor compartments after 1 hour and analyzed by liquid chromatography–tandem mass spectrometry (LC-MS/MS) using an AB Sciex API 4000 instrument coupled to a Shimadzu LC-20 AD LC Pump system. Samples were separated using a Waters Atlantis T3 dC18 reverse phase HPLC column (20 mm by 2.1 mm) at a flow rate of 0.5 ml/min. The mobile phase consisted of 0.1% formic acid in acetonitrile (solvent A) and 0.1% formic acid in water (solvent B).
Apparent permeability (Papp) values were calculated using the following equation Papp=(dQ/dt)/A/C0 where dQ/dt is the initial rate of compound transport across the cell monolayer, A is the surface area of the filter membrane, and C0 is the initial concentration of the test compound, calculated for each direction using a four-point calibration curve by LC-MS/MS.
The net flux ratio between the two directional transports was calculated by the following equation Ratio=PappB−A/PappA−B where PappB-A and PappA-B represent the apparent permeability of compounds from the basal-to-apical and apical-to-basal sides of the cellular monolayer, respectively. Recovery was calculated on the basis of the compound concentration at the end of the experiment compared to that at the beginning of the experiment, adjusted for volumes.

A further data set in a line: Microsomal stability. The data set is classed as in vitro ADME, mouse. The note with it: for Mouse microsome T1/2: 1 μM compound, 0.5 mg/ml microsome protein; for CLint (mouse): intrinsic clearance from t1/2. As for the experimental part:
The assay was carried out in 96-well plates at 37°C. Reaction mixtures (25 μl) contained a final concentration of 1 μM compound, liver microsome protein (0.5 mg/ml), and 1 mM NADPH (reduced form of nicotinamide adenine dinucleotide phosphate) and/or 1 mM uridine diphosphate glucuronic acid (with alamethicin) in 100 mM potassium phosphate (pH 7.4) with 3 mM MgCl2. After 0, 15, 30, and 60 min, 150 μl of quench solution (100% acetonitrile with 0.1% formic acid) with an internal standard was transferred to each well. Reactions containing the same components, except NADPH, were prepared as the negative control.
The extent of metabolism was calculated as the disappearance of compounds compared to the 0-min time incubation.

Data set [1] has as its target T2, SARS-CoV-2 NSP3 macrodomain (Mac1) (Severe acute respiratory syndrome coronavirus 2, UniProt P0DTD1). As to the kind of experiment: biochemical. The class given is binding.
Data set [2] concerns the target T3, human macrodomain MacroD2 (Homo sapiens, UniProt A1Z1Q3).
T3 construct: MacroD2_HTRF; HTRF assay; pET22b(+); His6, TEV, Avi; 2-425; made in house
T3 sequence (A1Z1Q3 with tags, fused parts or gaps): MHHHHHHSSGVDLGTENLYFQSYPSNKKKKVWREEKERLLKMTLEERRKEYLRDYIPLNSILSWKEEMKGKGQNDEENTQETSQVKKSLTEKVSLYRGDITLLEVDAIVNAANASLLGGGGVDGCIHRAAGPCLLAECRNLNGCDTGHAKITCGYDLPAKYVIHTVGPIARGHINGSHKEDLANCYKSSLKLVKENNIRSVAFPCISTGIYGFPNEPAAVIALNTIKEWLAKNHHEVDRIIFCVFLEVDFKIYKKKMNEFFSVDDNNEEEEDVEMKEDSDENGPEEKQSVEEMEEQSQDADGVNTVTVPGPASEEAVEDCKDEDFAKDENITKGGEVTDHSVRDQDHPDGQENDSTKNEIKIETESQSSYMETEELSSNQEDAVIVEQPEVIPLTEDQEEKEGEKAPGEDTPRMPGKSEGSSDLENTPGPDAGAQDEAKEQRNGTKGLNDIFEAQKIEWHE
As to the kind of experiment: HTRF peptide displacement assay, human MacroD2. The data set is classed as binding.

Data set [3] has as its target T2, SARS-CoV-2 NSP3 macrodomain (Mac1). The data set is classed as binding. The note with it: for 1-BDC: PanDDA background density correction factor; for Total number of conformations: ligand conformations modeled in the crystal structure; for 2*(1-BDC) (%): occupancy estimate from PanDDA; for Refined ligand occupancy (%): refined crystallographic occupancy.
A further data set relates to Mac1. The conditions noted are these: cited from earlier work.
The mark [4] stands for this setting: Caco-2 permeability assay, compound concentration 5.
The mark [5] stands for this setting: Mouse microsome stability assay.
Setting [6] is: HTRF binding curve, SARS-CoV-2 Mac1.
The mark [7] stands for this setting: SARS CoV-2 macrodomain HTRF assay, dose-response.
The mark [8] stands for this setting: crystal soak 10 mM, P43 crystal form.
The mark [9] stands for this setting: Caco-2, compound concentration 5.

Each structure is given as a SMILES string. Where “and” joins values, the source holds several entries; their conditions need not be identical. Equal entries are not always repeated. Where two headings read alike, the source gives them in different places. Where only a bound is given, the exact number is not on record here.

In general, Hill slope refers to the slope factor of the fitted curve. With `Nc1ncnc2c1ncn2[C@@H]1O[C@H](COP(=O)(O)OP(=O)(O)OC[C@H]2O[C@@H](O)[C@H](O)[C@@H]2O)[C@@H](O)[C@H]1O.[Na].[Na]` [ADP-ribose, reference compound], the Hill slope at human macrodomain Targ1 (HTRF binding curve, Targ1) was determined as 1.5.

Take `O=C(Nc1ccc(C(=O)N[C@H]2c3cccc(O)c3C[C@H]2C(=O)O)cc1)NC1CC1` [AVI-92, reference compound]: in the data set “Kinetic solubility”, the “Kinetic solubility (uM), mean” value is 524 µM and the Mean solubility is reported as 524 µM. Moreover, in the data set on Caco-2 cells (setting [4]), the “Papp, A-B (x10-6 cm/s), mean” value was 0.04 x10-6 cm/s; the “Papp, B-A (x10-6 cm/s), mean” value is reported as 1.7 x10-6 cm/s; the “Ratio (B-A/A-B)” value came to 42.50; the “Recover Rate (%)” value is listed as 91%. Further, the “Caco-2 ratio B-A/A-B” value with Caco-2 cells (net flux ratio) was determined as 40.7. In “Microsomal stability”, the “Mouse microsome T1/2” value was more than 120 min and the “CLint (mouse)” value is recorded as less than 11.6 µl/min/mg protein. For the same molecule, in the data set “Microsomal stability” (setting [5]), the “CLint (mouse) (µl/min/mg protein), mean” value is less than 11.6 µl/min/mg protein and the “T1/2 (min), mean” value is more than 120 min.

Regarding `O=C1CCCN1Nc1ncnc2[nH]c3cc(F)ccc3c12` [AVI-219, reference compound], in “Kinetic solubility”, the “Kinetic solubility (uM), mean” value was determined as 127 µM and the Mean solubility came to 127 µM. Besides, the “Recover Rate (%)” value in the data set with Caco-2 cells (setting [4]) is given as 98%. Also, in the data set “Microsomal stability” (setting [5]), the “T1/2 (min), mean” value is 26.1 min. The “CLint (mouse)” value in the data set “Microsomal stability” was determined as 53.1 µl/min/mg protein.

In turn, `CC(C)(O)[C@H]1CCCN1c1ncnc2[nH]ccc12` [AVI-607, 2-[(2R)-1-{7H-pyrrolo[2,3-d]pyrimidin-4-yl}pyrrolidin-2-yl]propan-2-ol] returned a Hill slope in data set [1] (setting [6]) of 1.5. For the same molecule, in data set [1] (setting [7]), the Hill slope is 1.5. For the same molecule, in data set [1] (SARS CoV-2 macrodomain HTRF assay, single dose concentration 200 μM, read-out: Average % competition), the inhibition at 200 µM was 100%. Moreover, in data set [1] (compound at 200 μM, mean of three to four technical replicates, read-out: % competition at 200 μM (preliminary HTRF screen)), the inhibition at 200 µM was 100%. Besides, in “Kinetic solubility”, the “Kinetic solubility (uM), mean” value is 518 µM and the Mean solubility is reported as 518 µM. Further, the “showed binding to the human macrodomain Targ1” value on human macrodomain Targ1 (result in words) is reported as “none”. In addition, the “Recover Rate (%)” value in the data set with Caco-2 cells (setting [4]) worked out at 93%. Besides, the “T1/2 (min), mean” value in the data set “Microsomal stability” (setting [5]) is recorded as 19 min. Moreover, in the data set “Microsomal stability”, the “CLint (mouse)” value stood at 73 µl/min/mg protein. In addition, the “showed binding to the human macrodomain MacroD2” value in data set [2] (result in words) was “none”. Further, in data set [3], the “Occupancy difference (refined_occupancy - 2*(1-BDC))” value was determined as 5, the 1-BDC worked out at 0.44, the “Total number of conformations” value is on record as 1 and the “2*(1-BDC) (%)” value is on record as 88%. Also, the “Refined ligand occupancy (%)” value in data set [3] is on record as 93%. Also, in data set [3] (crystal soak 10 mM), the “PanDDA run, overall: Modeling comment” value is recorded as “High occupancy, use manual refinement”; the “PanDDA run, DMSO background map: 1-BDC” value is 0.42 and 0.44; the “PanDDA run, DMSO background map: Hit” value is on record as “TRUE”. Also, the “PanDDA run, overall: Hit” value in data set [3] (setting [8]) was “TRUE”. Also, the X-ray crystal structure entry in data set [3] (ligand-bound crystal structure obtained (TRUE)) is “TRUE”. In data set [3] (site occupied in X-ray crystal structure), the Binding site result is on record as “Adenosine”.

For the molecule `CC(c1ccccc1)C(CO)Nc1ncnc2[nH]ccc12` (stereo not drawn) [AVI-3669], the Hill slope in data set [1] (setting [6]) is 1.2. In data set [1] (setting [7]), this molecule came in with a Hill slope of 1.2. Moreover, in the data set “Kinetic solubility”, the “Kinetic solubility (uM), mean” value is 529 µM and the Mean solubility stood at 529 µM. In addition, the “showed binding to the human macrodomain Targ1” value at human macrodomain Targ1 (result in words) is listed as “none”. Besides, the “Recover Rate (%)” value with Caco-2 cells (setting [9]) was 93%. The “T1/2 (min), mean” value in “Microsomal stability” (setting [5]) is 8.3 min. Also, in the data set “Microsomal stability”, the “CLint (mouse)” value is on record as 166.4 µl/min/mg protein. In addition, in data set [2] (result in words), the “showed binding to the human macrodomain MacroD2” value is on record as “none”. Also, in data set [3], the “Occupancy difference (refined_occupancy - 2*(1-BDC))” value stood at 0, the 1-BDC was found to be 0.14, the “Total number of conformations” value came out at 1 and the “2*(1-BDC) (%)” value is 28%. For the same molecule, the “Refined ligand occupancy (%)” value in data set [3] worked out at 28%. For the same molecule, the X-ray crystal structure entry in data set [3] (TRUE = crystal structure with ligand obtained) was “TRUE”. Moreover, in data set [3] (setting [8]), the “PanDDA run, overall: Hit” value is “TRUE” and the “PanDDA run, overall: Modeled” value was “TRUE”. In data set [3] (crystal soak 10 mM), the “PanDDA run, DMSO background map: 1-BDC” value is on record as 0.14 and the “PanDDA run, DMSO background map: Hit” value is “TRUE”. Besides, in data set [3] (site of ligand in X-ray crystal structure), the Binding site entry is given as “Adenosine”.

As to `C[C@H]1CCCN(c2ncnc3[nH]ccc23)[C@H]1CO` [AVI-3716], in the data set “Kinetic solubility”, the “Kinetic solubility (uM), mean” value was 523 µM and the Mean solubility was 523 µM. The “showed binding to the human macrodomain Targ1” value on human macrodomain Targ1 (result in words) is “none”. Further, the “Recover Rate (%)” value in the data set on Caco-2 cells (setting [4]) is 104%. In addition, in “Microsomal stability”, the “Mouse microsome T1/2” value is recorded as 31.2 min and the “CLint (mouse)” value came out at 44.4 µl/min/mg protein. Further, the “showed binding to the human macrodomain MacroD2” value in data set [2] (result in words) is on record as “none”.

Turning to `Cc1c[nH]c2ncnc(NCC3(O)CCCCC3)c12` [AVI-3761, 1-(((5-methyl-7H-pyrrolo[2,3-d]pyrimidin-4-yl)amino)methyl)cyclohexan-1-ol], the “showed binding to the human macrodomain Targ1” value at human macrodomain Targ1 was “none”. Moreover, in the data set with Caco-2 cells (setting [9]), the “Recover Rate (%)” value came to 86%. In addition, the “T1/2 (min), mean” value in “Microsomal stability” (setting [5]) is listed as 7.49 min. In addition, in the data set “Microsomal stability”, the “CLint (mouse)” value is given as 185 µl/min/mg protein. The “showed binding to the human macrodomain MacroD2” value in data set [2] is “none”.

`CCNC(=O)Nc1cccc2c1[nH]c1ncnc(NN3C(=O)CCC3(C)C)c12` [AVI-4206]: in the data set on Mac1, the “potency (in words)” value is on record as “double-digit nanomolar”.

Values taken from PMC12118597 (Science Advances, 2025).
